Assay results: patent publication US6034134A, “1-Amino-alkylcyclohexane NMDA receptor antagonists” (Merz + Co. GmbH & Co., priority 1998, dated 2000)
Where a name gives a salt, the structure may show the parent alone. Read-outs that look alike come from different tables or passages of the source.

Experiments:
[1] = system: cortical neurones; test: Excitotoxicity: glutamate toxicity in cultured cortical neurones (MTT); type: cell-based, rat; conditions: for IC50: Rattus norvegicus, Cortical neurone
Procedure: Cortical neurones were obtained from cerebral cortices of 17/18 day old fetal rats (Wistar), in general following the dissociation procedure described by. After short trypsinization and gentle trituration with fire-polished Pasteur pipettes, the cell suspension was washed by centrifugation. Cells were suspended in serum-free Neurobasal medium with B27 supplement (GIBCO) before plating onto poly-L-lysine (Sigma; 0.2 mg/ml, 20 h, 4° C.) and laminin (Sigma; 2 μg/ml, 1 h, 37° C.)-coated 96-well plates (Falcon, Primaria) at a density of 5×10^4 cells/well. Cortical neurones were maintained at 37° C. in humidified 10% CO2 /90% air. […] The medium was changed first after 4 days in vitro and then every 4 days by replacing 2/3 of the medium with astrocyte-conditioned medium. Cortical neurones between day 12 and 14 in culture were used for the experiments.
New-born rat astrocytes were isolated non-enzymatically according to the method of [24]. Briefly, both hemispheres were dissected from 2-day-old rats, passed through an 80 μm gauze, and triturated with Pasteur pipettes. Cell suspension was made in Dulbecco's modified essential medium (DMEM, Gibco) supplemented with 10% fetal calf serum (FCS, Hyclone), 2 mM glutamine (Gibco) and 50 μg/ml gentamycin and transferred into untreated, plastic culture flasks (Corning; […]). Two days after plating the flasks were shaken for 10 minutes on a rotary platform (150 U/min) to remove microglial cells. The cultures were grown to confluency within 14 days, and the culture medium was changed twice weekly. Thereafter, the glial monolayers were extensively washed with serum-free Neurobasal medium (Gibco) to remove the serum. Flasks were then shaken several times to remove oligodendrocytes and neurones. To obtain conditioned medium from primary astrocytes, the cultures were incubated with fresh Neurobasal medium supplemented with B27 andglutamine. Every 2-3 days the conditioned medium was collected and replaced by fresh medium up to 4 times.
Exposure to EAA was performed in serum-free Neurobasal medium containing 100 μM glutamate and the drug to be tested. After 20 h of incubation, the cytotoxic effect was morphologically examined under a phase contrast microscope and biochemically quantified by measuring cell viability with the MTT test (Promega). This calorimetric assay measures the reduction of a tetrazolium component (MTT) into an insoluble formazan product by the mitochondria of living cells. After incubation of the cortical neurones with the dye solution for approximately 1-4 hours, a solubilization solution was added to lyse the cells and solubilize the colored product (incubation overnight at 37° C., 10% CO2, 90% RH). These samples were then read using an Elisa plate reader (Thermomax, MWG Biotech) at a wavelength of 570 nm. The amount of color produced was directly proportional to the number of viable cells.
(§1) IC50 s in patch clamp, excitotoxicity, and binding studies were calculated according to the four parameter logistic equation using the Grafit computer program (Erithacus Software, England). Ki value for binding studies were then determined according to Cheng and Prusoff. Binding values presented are means±SEM of 3-5 determinations (each performed in duplicate). […] Pearson product moment correlation analysis (Sigma Stat, Jandel Scientific) was used to compare in vitro potencies and in vivo anticonvulsant activity.

[2] = Procedure: All animals were kept with water and food ad libitum under a 12 hour light-dark cycle (light on at 6 a.m.) and at a controlled temperature (20±0.5° C.). All e experiments were performed between 10 a.m. and 5 p.m. Tested agents were injected 30 min. i.p. before the induction of convulsions if not stated otherwise (see below). All compounds were dissolved in 0.9% saline.
[3] = Maximal electroshock (MES)-induced convulsions in mice; type: in vivo; conditions: for ED50: Mus musculus
Procedure: NMR female mice (18-28 g) housed 5 per cage were used for the maximal electroshock (MES) and motor impairment tests. […] All compounds were dissolved in 0.9% saline.
The MES test was performed together with tests for myorelaxant action (traction reflex) and motor coordination (rotarod). For the traction reflex test mice were placed with their forepaws on a horizontal rod and were required to place all 4 paws on the wire within 10 seconds. To test ataxia (motor coordination) mice were placed on rotarod (5 rpm) and were required to remain on the rod for 1 minute. […] These tests were followed by MES (100 Hz, 0.5 second shock duration, 50 mA shock intensity, 0.9 ms impulse duration, Ugo Basile) applied through corneal electrodes. The presence of tonic convulsions was scored (tonic extension of hind paws with minimum angle to the body of 90°). The aim was to obtain ED50 s for all parameters scored (anticonvulsive activity and motor side effects) with use of the Litchfield Wilcoxon test for quantal dose responses. Division of the ED50 for side effects (ataxia or myorelaxation) by the ED50 for antagonism of electroshock convulsions was used as a therapeutic index (TI). […]

[4] = target: NMDA receptor; test: [3H]-(+)-MK-801 binding to rat cortical membranes; conditions: for Ki: read-out: MK-801 Ki, Table 9, Cheng-Prusoff with Kd for MK-801 of […]; for IC50: read-out: [3H] MK-801 IC50, Table 7, footnote calls the values Ki
Procedure: Male Sprague-Dawley rats (200-250 g) were decapitated and their brains were removed rapidly. The cortex was dissected and homogenized in 20 volumes of ice-cold 0.32 M sucrose using a glass-Teflon homogenizer. The homogenate was centrifuged at 1000 ×g for 10 minutes. The pellet was discarded and the supernatant centrifuged at 20,000 ×g for 20 minutes. The resulting pellet was re-suspended in 20 volumes of distilled water and centrifuged for 20 minutes at 8000 ×g. Then the supernatant and the buffy coat were centrifuged three times (48,000 ×g for 20 minutes) in the presence of 50 mM Tris-HCl, pH 8.0. All centrifugation steps were carried out at 4° C. After resuspension in 5 volumes of 50 mM Tris-HCl, pH 8.0 the membrane suspension was frozen rapidly at -80° C. On the day of assay the membranes were thawed and washed four times by resuspension in 50 mM Tris-HCl, pH 8.0 and centrifugation at 48,000 ×g for 20 minutes. The final pellet was suspended in assay buffer. The amount of protein in the final membrane preparation was determined according to the method of Lowry with some modifications. The final protein concentration used for our studies was between 250-500 μg/ml.
Membranes were re-suspended and incubated in 50 mM Tris-HCl, pH 8.0. […] Incubations were terminated using a Millipore filter system. The samples were rinsed three times with 2.5 ml ice cold assay buffer over glass fiber filters obtained from Schleicher & Schuell under a constant vacuum. Filtration was performed as rapidly as possible. Following separation and rinse, the filters were placed into scintillation liquid (5 ml; Ultima Gold) and radio activity retained on the filters was determined with a conventional liquid scintillation counter (Hewlett Packard, Liquid Scintillation Analyser).
as §1

[5] = Table 7, 100 μM glutamate, 20 h, read-out: Glut. Tox. IC50
[6] = Table 9, 100 μM glutamate, read-out: Glut Tox IC50
[7] = ip, 0.5 h, Table 7, mice, i.p., 30 min before, read-out: MES ED50
[8] = ip, 0.5 h, Table 8, mice, i.p., 95% confidence limits in parentheses, read-out: MES ED50

Structure (SMILES) | IC50 [1, 5] [µM] | IC50 [1, 6] [µM] | Min Lethality ([2]; mouse, in vivo, ip) [mg/kg] | ED50 [3, 7] [mg/kg] | ED50 [3, 8] [mg/kg] | Ki [4] [µM] | IC50 [4] [µM] | Min Lethality ([2]; i.p., minimal lethal dose) [mg/kg] | neuroprotection in vitro (in words) [1] | ED50 ([3]; iv, read-out: ED50 (anticonvulsive) following i.v. administration) [mg/kg] | ED50 ([3]; po, read-out: ED50 (anticonvulsive) following p.o. administration) [mg/kg] | ED50 ([3]; sc, read-out: ED50 (anticonvulsive) following s.c. administration) [mg/kg] | IC50 ([1]; 20 h, read-out: Glut. Tox. IC50) [µM] | IC50 ([1]; read-out: Glut Tox IC50) [µM] | ED50 ([3]; ip, 0.5 h, read-out: MES ED50) [mg/kg] | MES ED50 ([3]; Table 8, mice, i.p., 95% confidence limits in parentheses, 30 min)
C[C@@H]1CC(C)(C)C[C@@](C)(N)C1 (relative stereo) [Mrz 2/607] | 10.1 | 10.1 | 50 | 22.9 | 22.9 | 7.74 | 8.2 |  |  |  |  |  |  |  |  | 
CC[C@@H]1CCC[C@@](C)(N)C1 (relative stereo) [Mrz 2/629] | > 300 | > 300 | 100 | 58.5 | 58.5 | 49.3 | 39.4 |  |  |  |  |  |  |  |  | 
CCC[C@@H]1CC(C)(C)C[C@](C)(N)C1 (relative stereo) [Mrz 2/634] | 19 | 19 |  | > 30 | > 30 | 13.4 | 15.5 | > 30 |  |  |  |  |  |  |  | 
C[C@@H]1C[C@H](C)C[C@@](C)(N)C1 [MRZ 2/680, 1,trans-3,trans-5-Trimethylcyclohexylamine hydrochloride] |  | 35.6 | > 50 |  | 34.5 | 30 |  |  |  |  |  |  |  |  |  | 
CCC[C@H]1CCC[C@@](C)(N)C1 (relative stereo) [Mrz 2/628] | 27.3 | 27.3 | > 60 | 73.2 | 73.2 | 49.2 | 35.6 |  |  |  |  |  |  |  |  | 
CC1(C)CC(CCN)CC(C)(C)C1 [Mrz 2/644] | 4.3 | 4.3 | > 35 | 53 | 53 | 4.84 | 3.8 |  |  |  |  |  |  |  |  | 
C[C@H]1CCC[C@@](C)(N)C1 (relative stereo) [Mrz 2/631] | > 100 | > 100 |  | 30 | 30 | 65.3 | 69.7 | > 30 |  |  |  |  |  |  |  | 
CC[C@H]1CCC[C@@](C)(N)C1 (relative stereo) [Mrz 2/630] | > 100 | > 100 |  | > 30 | > 30 | 49.1 | 44.3 | > 30 |  |  |  |  |  |  |  | 
CCC1(N)CC(C)(C)CC(C)(C)C1 [Mrz 2/600, 1-amino-1-ethyl-3,3,5,5-tetramethylcyclohexane] | 2.1 | 2.1 |  | 22.6 | 22.6 | 2.28 | 2.4 | 50 |  |  |  |  |  |  |  | 
CC[C@H]1CC(C)(C)C[C@@](C)(N)C1 [MRZ 2/683, (1S, 5S) cis-3-Ethyl-1,5,5-trimethylcyclohexylamine hydrochloride hydrate] |  | 5.08 | > 50 |  | 12.2 | 4.44 |  |  |  |  |  |  |  |  |  | 
CC1(C)CC(C)(C)CC(C)(N)C1 [Mrz 2/579, 1-amino-1,3,3,5,5-pentamethylcyclohexane] | 2.2 | 2.16 |  | 3.6 | 3.6 | 1.47 | 1.9 | 108 | most potent | 2.5 | 13.7 | 4.6 |  |  |  | 
CCC[C@@H]1CCC[C@@](C)(N)C1 (relative stereo) [Mrz 2/627] | 26.6 | 26.6 | 60 | 43.9 | 43.9 | 71 | 70.3 |  |  |  |  |  |  |  |  | 
CNC1(C)CC(C)(C)CC(C)(C)C1.Cl [Mrz 2/640, N,1,3,3,5,5-hexamethylcyclohexanamine hydrochloride] | 8.3 | 8.35 |  | 8.2 | 8.18 | 4.83 | 3.7 | 108 |  |  |  |  |  |  |  | 
CC1CC(C)CC(C)(N)C1 (stereo not shown) [Mrz 2/616, 1-amino-1,3,5-trimethylcyclohexane] | 9.1 | 9.1 |  | 24 | 24 | 10.4 | 15 | > 50 |  |  |  |  |  |  |  | 
CCC1(C)CCCC(C)(N)C1 (stereo not shown) [Mrz 2/620] | 38.4 | 38.4 | > 50 | 41.3 | 41.3 | 25.5 | 32.2 |  |  |  |  |  |  |  |  | 
C[C@@H]1C[C@H](C)C[C@](C)(N)C1 [MRZ 2/681, 1,cis-3,cis-5-Trimethylcyclohexylamine hydrochloride hydrate] |  | 26.9 | > 50 |  | 27.9 | 19.2 |  |  |  |  |  |  |  |  |  | 
CCCC1(C)CC(C)(C)CC(C)(N)C1 (stereo not shown) [Mrz 2/614] | > 10 | 1.26 | > 50 | 23.5 | 23.5 | 13.6 | 13.6 |  |  |  |  |  |  |  |  | 
CCCC1(N)CC(C)(C)CC(C)(C)C1 [Mrz 2/601, 1-amino-1-propyl-3,3,5,5-tetramethylcyclohexane] |  |  |  |  |  | 8.09 | 7.4 | 50 |  |  |  |  | 3.5 | 3.5 | 15.6 | 15.6 (10.4-23.4) mg/kg
